From PMC9112332, “Structure-Based Design of α-Substituted Mercaptoacetamides as Inhibitors of the Virulence Factor LasB from Pseudomonas aeruginosa” (ACS Infectious Diseases, 2022)

Assays:
[1] = system: A549 cells treated with ΔlasB PA14 supernatant; format: cell-based, human; conditions: 15% (v/v) ΔlasB PA14 supernatant, MTT
MMP-2 = biological target: T1, MMP-2 (Homo sapiens, UniProt P08253); test: Human off-target inhibition assay, MMP-2; format: biochemical
T1 sequence (P08253 110-660): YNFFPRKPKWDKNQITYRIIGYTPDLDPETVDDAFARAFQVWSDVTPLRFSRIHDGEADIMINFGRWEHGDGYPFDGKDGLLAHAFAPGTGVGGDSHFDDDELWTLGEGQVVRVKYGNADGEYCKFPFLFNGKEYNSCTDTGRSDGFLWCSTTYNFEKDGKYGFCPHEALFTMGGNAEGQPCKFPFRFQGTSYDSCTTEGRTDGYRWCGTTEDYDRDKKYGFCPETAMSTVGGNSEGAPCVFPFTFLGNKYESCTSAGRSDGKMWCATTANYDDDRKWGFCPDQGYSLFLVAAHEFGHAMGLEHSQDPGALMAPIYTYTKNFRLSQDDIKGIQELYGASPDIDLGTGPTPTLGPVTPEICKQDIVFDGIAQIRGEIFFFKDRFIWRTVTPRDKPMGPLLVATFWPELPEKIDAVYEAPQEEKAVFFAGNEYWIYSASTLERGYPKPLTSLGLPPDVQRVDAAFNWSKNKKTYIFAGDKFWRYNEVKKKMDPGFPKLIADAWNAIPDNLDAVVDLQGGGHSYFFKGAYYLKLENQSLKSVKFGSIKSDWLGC

HDAC-3 = HDAC-3 (Homo sapiens, UniProt O15379); test: Human off-target inhibition assay, HDAC-3; format: biochemical
HDAC-3, sequence (O15379 whole entry): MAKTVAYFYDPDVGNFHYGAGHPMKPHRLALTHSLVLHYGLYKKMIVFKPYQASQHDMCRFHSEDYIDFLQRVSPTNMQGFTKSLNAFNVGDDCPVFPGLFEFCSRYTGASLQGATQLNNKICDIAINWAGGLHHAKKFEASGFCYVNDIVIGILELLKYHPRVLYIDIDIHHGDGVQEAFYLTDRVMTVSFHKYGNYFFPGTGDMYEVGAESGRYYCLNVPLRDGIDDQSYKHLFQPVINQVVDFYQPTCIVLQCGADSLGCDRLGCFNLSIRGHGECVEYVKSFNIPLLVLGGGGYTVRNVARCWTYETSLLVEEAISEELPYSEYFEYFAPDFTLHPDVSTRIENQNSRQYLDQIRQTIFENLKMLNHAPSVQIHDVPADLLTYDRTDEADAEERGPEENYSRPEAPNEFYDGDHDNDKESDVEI
HDAC-3, sequence (Q9Y618 395-489 partner limits assumed): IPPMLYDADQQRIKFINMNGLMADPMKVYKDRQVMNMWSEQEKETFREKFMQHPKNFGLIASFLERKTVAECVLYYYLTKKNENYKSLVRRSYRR
Experimental: (§1) Table 3 Activities of Four LasB Inhibitors against the Selected MMPs (% of inhibition at 100 μM) and Further Human Off-Targets ^a | column: 3; 12; 13; 23

MMP-14 = MMP-14 (Homo sapiens, UniProt P50281); test: Human off-target inhibition assay, MMP-14; format: biochemical
MMP-8 = MMP-8 (Homo sapiens, UniProt P22894); test: Human off-target inhibition assay, MMP-8; format: biochemical
MMP-8, sequence (P22894 101-467): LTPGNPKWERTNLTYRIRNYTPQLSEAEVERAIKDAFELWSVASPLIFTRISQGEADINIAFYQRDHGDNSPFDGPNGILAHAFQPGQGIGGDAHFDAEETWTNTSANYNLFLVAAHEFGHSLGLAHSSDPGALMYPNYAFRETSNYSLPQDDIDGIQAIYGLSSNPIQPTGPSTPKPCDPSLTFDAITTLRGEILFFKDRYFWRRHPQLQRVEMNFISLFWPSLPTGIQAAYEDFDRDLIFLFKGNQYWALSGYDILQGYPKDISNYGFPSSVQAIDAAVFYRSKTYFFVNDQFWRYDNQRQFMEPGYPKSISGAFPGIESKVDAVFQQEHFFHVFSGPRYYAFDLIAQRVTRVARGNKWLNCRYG

MMP-1 = biological target: T2, MMP-1 (Homo sapiens, UniProt P03956); test: Human off-target inhibition assay, MMP-1; format: biochemical
T2 sequence (P03956 100-469): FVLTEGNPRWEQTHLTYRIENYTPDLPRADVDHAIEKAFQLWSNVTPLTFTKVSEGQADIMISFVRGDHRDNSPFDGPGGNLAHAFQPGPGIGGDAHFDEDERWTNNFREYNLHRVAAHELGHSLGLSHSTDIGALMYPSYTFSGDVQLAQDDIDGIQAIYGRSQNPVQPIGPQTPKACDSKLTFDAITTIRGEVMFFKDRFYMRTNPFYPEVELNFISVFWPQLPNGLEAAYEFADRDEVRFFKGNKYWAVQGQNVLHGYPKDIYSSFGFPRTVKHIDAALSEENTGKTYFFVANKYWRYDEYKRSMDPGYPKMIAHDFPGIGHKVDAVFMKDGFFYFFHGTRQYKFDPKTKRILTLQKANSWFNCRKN

MMP-3 = MMP-3 (Homo sapiens, UniProt P08254); test: Human off-target inhibition assay, MMP-3; format: biochemical
MMP-3, sequence (P08254 100-477): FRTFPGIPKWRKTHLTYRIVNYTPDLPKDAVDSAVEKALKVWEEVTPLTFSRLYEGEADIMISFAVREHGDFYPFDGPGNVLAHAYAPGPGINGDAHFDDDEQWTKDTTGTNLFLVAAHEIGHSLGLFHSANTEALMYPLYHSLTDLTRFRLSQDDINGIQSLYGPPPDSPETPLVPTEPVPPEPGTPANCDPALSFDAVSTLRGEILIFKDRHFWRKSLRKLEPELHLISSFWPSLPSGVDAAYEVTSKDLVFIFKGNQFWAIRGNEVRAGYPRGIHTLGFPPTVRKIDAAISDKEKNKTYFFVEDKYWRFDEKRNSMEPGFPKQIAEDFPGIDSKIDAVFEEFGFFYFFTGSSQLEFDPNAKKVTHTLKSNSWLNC

MMP-7 = biological target: T3, MMP-7 (Homo sapiens, UniProt P09237); test: Human off-target inhibition assay, MMP-7; format: biochemical
T3 sequence (P09237 95-267): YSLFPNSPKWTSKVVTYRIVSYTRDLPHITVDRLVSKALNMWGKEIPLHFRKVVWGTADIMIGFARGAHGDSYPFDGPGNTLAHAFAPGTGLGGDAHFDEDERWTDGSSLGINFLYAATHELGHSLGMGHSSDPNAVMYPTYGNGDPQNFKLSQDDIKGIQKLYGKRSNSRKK

HDAC-8 = biological target: T4, HDAC-8 (Homo sapiens, UniProt Q9BY41); test: Human off-target inhibition assay, HDAC-8; format: biochemical
T4 sequence (Q9BY41 1-377): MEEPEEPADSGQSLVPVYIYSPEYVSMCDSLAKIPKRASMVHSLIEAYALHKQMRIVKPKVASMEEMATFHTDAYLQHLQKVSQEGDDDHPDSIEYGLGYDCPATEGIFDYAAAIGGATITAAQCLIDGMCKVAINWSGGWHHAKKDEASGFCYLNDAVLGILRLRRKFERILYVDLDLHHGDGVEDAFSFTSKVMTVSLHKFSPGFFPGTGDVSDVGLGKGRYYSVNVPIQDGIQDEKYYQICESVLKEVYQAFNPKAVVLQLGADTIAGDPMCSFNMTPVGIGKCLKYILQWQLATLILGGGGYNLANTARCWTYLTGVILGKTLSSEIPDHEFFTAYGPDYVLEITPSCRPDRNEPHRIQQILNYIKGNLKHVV
Experimental: as §1

Cytotoxicity assay, A549 = format: cell-based; conditions: A549 cells; adenocarcinomic human alveolar basal epithelial cells
[2] = system: A549 cells treated with wt PA14 supernatant; conditions: 15% (v/v) wt PA14 supernatant; for effect on viability of A549 cells treated with wt PA14 supernatant (in words): MTT
[3] = Cytotoxicity assay, HEK293; format: cell-based; conditions: HEK293 cells; human embryonic kidney cells
[4] = Cytotoxicity assay, HepG2; format: cell-based; conditions: HepG2 cells; human hepatoma cell line
ADAM17 = ADAM17 (Homo sapiens, UniProt P78536); test: Human off-target inhibition assay, ADAM17 (TACE); format: biochemical
ADAM17, sequence (P78536 215-824): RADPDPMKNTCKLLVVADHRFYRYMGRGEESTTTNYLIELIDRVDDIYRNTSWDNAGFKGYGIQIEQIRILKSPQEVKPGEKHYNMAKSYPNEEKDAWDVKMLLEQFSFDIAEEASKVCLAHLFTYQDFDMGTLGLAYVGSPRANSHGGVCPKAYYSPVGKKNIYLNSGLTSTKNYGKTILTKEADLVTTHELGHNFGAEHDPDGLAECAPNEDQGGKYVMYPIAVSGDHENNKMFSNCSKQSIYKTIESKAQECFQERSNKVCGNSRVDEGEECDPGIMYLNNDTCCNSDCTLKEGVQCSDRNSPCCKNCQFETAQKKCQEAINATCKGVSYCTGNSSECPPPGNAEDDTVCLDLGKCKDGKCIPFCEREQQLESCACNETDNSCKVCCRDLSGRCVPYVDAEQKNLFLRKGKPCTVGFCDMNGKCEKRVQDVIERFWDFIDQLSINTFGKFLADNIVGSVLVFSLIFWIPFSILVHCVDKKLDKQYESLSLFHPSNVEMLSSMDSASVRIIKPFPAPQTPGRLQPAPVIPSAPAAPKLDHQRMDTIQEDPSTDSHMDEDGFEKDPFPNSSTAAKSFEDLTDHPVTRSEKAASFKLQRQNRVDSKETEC

LasB = LasB (Pseudomonas aeruginosa, UniProt Q02RJ6); test: LasB inhibition assay (FRET-based, in vitro); conditions: for ligand efficiency (LE) / lipophilic ligand efficiency (LLE): calculated from LasB activity
LasB, sequence (Q02RJ6 198-498): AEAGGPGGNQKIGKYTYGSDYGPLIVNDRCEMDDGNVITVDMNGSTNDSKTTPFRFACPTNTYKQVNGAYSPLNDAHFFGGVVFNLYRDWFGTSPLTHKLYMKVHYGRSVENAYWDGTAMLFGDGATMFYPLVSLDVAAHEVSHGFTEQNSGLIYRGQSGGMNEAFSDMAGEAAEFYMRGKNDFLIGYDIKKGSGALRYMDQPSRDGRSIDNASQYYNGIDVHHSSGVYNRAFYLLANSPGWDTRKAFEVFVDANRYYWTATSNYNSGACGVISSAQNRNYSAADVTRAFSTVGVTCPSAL
Experimental: LasB Inhibition Assay. The purification of LasB from P. aeruginosa P14 supernatant as well
as the subsequent performance of the FRET-based in vitro inhibition assay was performed as
described previously.1 All samples were run in duplicate for each condition, and experiments
were performed independently at least twice.

[5] = system: NHDF cells treated with wt PA14 supernatant; format: cell-based, human; conditions: 15% (v/v) wt PA14 supernatant; for effect on viability of NHDF cells treated with wt PA14 supernatant (in words): MTT
P. aeruginosa PA14 = test: Antibacterial activity (MIC) assay; format: cell-based, Pseudomonas aeruginosa; conditions: for MIC: Pseudomonas aeruginosa, P. aeruginosa PA14; for reduction of bacterial growth: at 100 μM
ColH-PD = ColH-PD (Hathewaya histolytica, UniProt Q46085); test: biochemical; parameters: species or system C. histolyticum
ColH-PD, sequence (Q46085 331-721 limits assumed): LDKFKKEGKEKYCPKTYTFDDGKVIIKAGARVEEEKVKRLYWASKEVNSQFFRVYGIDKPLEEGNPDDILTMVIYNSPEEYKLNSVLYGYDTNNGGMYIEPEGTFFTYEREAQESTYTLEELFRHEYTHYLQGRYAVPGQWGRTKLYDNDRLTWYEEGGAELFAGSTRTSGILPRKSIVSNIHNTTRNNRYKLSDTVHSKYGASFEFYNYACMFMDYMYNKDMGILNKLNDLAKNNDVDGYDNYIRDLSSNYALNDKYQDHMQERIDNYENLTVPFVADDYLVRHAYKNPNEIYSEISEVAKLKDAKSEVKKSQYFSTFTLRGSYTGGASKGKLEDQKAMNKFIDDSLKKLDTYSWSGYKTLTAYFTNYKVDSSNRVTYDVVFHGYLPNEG

G. mellonella larvae = test: In vivo Galleria mellonella virulence assay; conditions: compound with wt PA14 supernatant, after 6 days
zebrafish embryos = test: Zebrafish embryo toxicity (maximum tolerated concentration) assay; format: in vivo; conditions: for toxicity (larvae with toxicity signs): Table S2; for maximum tolerated concentration (MTC): zebrafish embryos, until 120 hpf
[6] = system: A549 cells treated with wt PA14 supernatant; test: cells; conditions: Homo sapiens, A549, 24 h, read-out: increase in viability of A549 cells

Row | SMILES | effect on A549 cells treated with ΔlasB PA14 supernatant (in words) [1] | inhibition at 100 µM (MMP-2) [%] | IC50 (HDAC-3) [µM] | inhibition at 100 µM (MMP-14) [%] | inhibition at 100 µM (MMP-8) [%] | inhibition at 100 µM (MMP-1) [%] | inhibition at 100 µM (MMP-3) [%] | inhibition at 100 µM (MMP-7) [%] | IC50 (HDAC-8) [µM] | IC50 (Cytotoxicity assay, A549) [µM] | effect on viability of A549 cells treated with wt PA14 supernatant (in words) [2] | IC50 [3] [µM] | IC50 [4] [µM] | IC50 (ADAM17) [µM] | IC50 (LasB) [nM] | effect on viability of NHDF cells treated with wt PA14 supernatant (in words) [5] | MIC (P. aeruginosa PA14) [µM] | reduction of bacterial growth (P. aeruginosa PA14) | Ki (ColH-PD) [nM] | survival of larvae (G. mellonella larvae) [%] | also measured
1 | O=C(Nc1ccc(O)cc1)C(S)Cc1ccccc1 (centres unmarked) [Compound 13] | no effect | < 10 | > 250 | < 10 | 19 ± 4 | < 10 | < 10 | < 10 | > 250 | > 100 | Dose-dependent effect | > 100 | > 100 | 2.3 ± 1.4 | 600 ± 40 | Concentrations-dependent effects | > 100 | less than 10% | 100 ± 20 | – | –
2 | COc1ccc(NC(=O)C(S)Cc2ccccc2)cc1 (centres unmarked) [Compound 12, 2-Mercapto-N-(4-methoxyphenyl)-3-phenylpropanamide] | no effect | < 10 | > 100 | < 10 | 12 ± 2 | < 10 | < 10 | < 10 | > 100 | – | Dose-dependent effect | – | – | 4.1 ± 0.1 | 700 ± 30 | Concentrations-dependent effects | – | – | 40 ± 10 | 70 ± 5 | Survival rate % (zebrafish embryos; 2 µM): 100%; toxicity (larvae with toxicity signs) (zebrafish embryos; 2 µM): No toxicity signs were observed; Survival rate % (zebrafish embryos; 30 µM): 0%; embryo observation (zebrafish embryos; 30 µM, 2 dpf): imp. dev.; embryo observation (zebrafish embryos; 30 µM, 3 dpf): all dead; toxicity (larvae with toxicity signs) (zebrafish embryos; 30 µM): 100%; Survival rate % (zebrafish embryos; 50 µM): 0%; embryo observation (zebrafish embryos; 50 µM, 3 dpf): all dead; toxicity (larvae with toxicity signs) (zebrafish embryos; 50 µM): 100%; Survival rate % (zebrafish embryos; 100 µM): 0%; embryo observation (zebrafish embryos; 100 µM, 2 dpf): all dead; toxicity (larvae with toxicity signs) (zebrafish embryos; 100 µM): 100%; maximum tolerated concentration (MTC) (zebrafish embryos): ≤ 2 µM
3 | O=C(Nc1nc2ccccc2s1)C(S)Cc1ccccc1 (centres unmarked) [Compound 23, N-(Benzo[d]thiazol-2-yl)-2-mercapto-3-phenylpropanamide] | no effect | < 10 | > 100 | < 10 | < 10 | < 10 | < 10 | < 10 | > 100 | > 100 | Dose-dependent effect | > 100 | > 100 | 10.4 ± 0.2 | 700 ± 100 | – | > 100 | less than 10% | 100 ± 10 | 70 ± 5 | ligand efficiency (LE) (LasB): 0.48; lipophilic ligand efficiency (LLE) (LasB): 3.21; Survival rate % (zebrafish embryos; 2 µM): 100%; Survival rate % (zebrafish embryos; 30 µM): 70%; toxicity (larvae with toxicity signs) (zebrafish embryos; 30 µM): 30%; embryo observation (zebrafish embryos; 50 µM, 2 dpf): imp. dev.; embryo observation (zebrafish embryos; 50 µM, 3 dpf): 5 imp. dev.; embryo observation (zebrafish embryos; 50 µM, 4 dpf): 5 imp. dev.; embryo observation (zebrafish embryos; 50 µM, 5 dpf): 5 imp. dev.; Survival rate % (zebrafish embryos; 100 µM): 0%; embryo observation (zebrafish embryos; 100 µM, 2 dpf): imp. dev.; embryo observation (zebrafish embryos; 100 µM, 3 dpf): 5 imp. dev.; embryo observation (zebrafish embryos; 100 µM, 4 dpf): 5 imp. dev.; embryo observation (zebrafish embryos; 100 µM, 5 dpf): 5 imp. dev.; maximum tolerated concentration (MTC) (zebrafish embryos): ≤ 30 µM; viability at 50 µM [6]: 80 ± 15%
4 | Cc1ccc(NC(=O)C(S)Cc2ccccc2)cc1 (centres unmarked) [Compound 3] | – | < 10 | > 100 | < 10 | < 10 | < 10 | < 10 | < 10 | > 100 | – | – | – | – | – | – | – | – | – | 50 ± 10 | – | boost in potency compared to compound 4 (LasB; LasB IC50 ratio vs compound 4): 12 fold; ligand efficiency (LE) (LasB): 0.43; lipophilic ligand efficiency (LLE) (LasB): 2.37
5 | CC(C)C[C@H](NP(=O)(O)O[C@@H]1O[C@@H](C)[C@H](O)[C@@H](O)[C@H]1O)C(=O)N[C@@H](Cc1c[nH]c2ccccc12)C(=O)O [Pam, phosphoramidon, reference compound] | – | – | – | – | – | – | – | – | – | – | – | – | – | – | – | – | – | – | – | – | cell integrity and morphology of A549 cells (bright-field imaging) [2]: cell integrity and morphology were maintained; cell integrity and morphology of NHDF cells (bright-field imaging) [5]: cell integrity and morphology were maintained
6 | COc1ccc2nc(NC(=O)C(S)Cc3ccccc3)sc2c1 (centres unmarked) [Compound 24] | no effect | – | – | – | – | – | – | – | – | – | Dose-dependent effect | – | – | – | 1000 ± 100 | – | – | – | 28000 ± 1000 | – | viability at 50 µM [6]: 80 ± 15%
